According to PubChem BioAssay AID330 (DTP/NCI, 2004):
“And” between values parts separate entries of the source, which are not always exact repeats. Identical values can stand only once. Inconclusive results and toxic doses are left out.

Test system: P388 leukemia ip, CD2F1 mice, survival T/C
Test: NCI In Vivo Anticancer Drug Screen. Data for tumor model P388 Leukemia (intraperitoneal) in CD2F1 (CDF1) mice
Conditions: endpoint: median survival time, higher = longer survival
Procedure, shortened: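 Mice carrying the transplanted tumor received test compound or vehicle. Survival was recorded in each group, and the value is the treated-group measurement divided by that of the vehicle-treated control group.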

[1] = dose: 60.0 mg/kg/injection, schedule: Q01DX005 (ip), vehicle: Klucel (hydroxypropylcellulose) (HPC)
[2] = dose: 120.0 mg/kg/injection, schedule: Q01DX005 (ip), vehicle: Klucel (hydroxypropylcellulose) (HPC)
[3] = dose: 50.0 mg/kg/injection, schedule: Q01DX005 (ip), vehicle: Klucel (hydroxypropylcellulose) (HPC)
[4] = dose: 100.0 mg/kg/injection, schedule: Q01DX005 (ip), vehicle: Klucel (hydroxypropylcellulose) (HPC)
[5] = dose: 200.0 mg/kg/injection, schedule: Q01DX005 (ip), vehicle: Klucel (hydroxypropylcellulose) (HPC)
[6] = dose: 50.0 mg/kg/injection, schedule: Q01DX009 (ip), vehicle: saline
[7] = dose: 100.0 mg/kg/injection, schedule: Q01DX009 (ip), vehicle: saline
[8] = dose: 200.0 mg/kg/injection, schedule: Q01DX009 (ip), vehicle: saline
[9] = dose: 100.0 mg/kg/injection, schedule: Q04DX003 (ip), vehicle: saline with Tween-80
[10] = dose: 200.0 mg/kg/injection, schedule: Q04DX003 (ip), vehicle: saline with Tween-80
[11] = dose: 400.0 mg/kg/injection, schedule: Q04DX003 (ip), vehicle: saline with Tween-80
[12] = dose: 50.0 mg/kg/injection, schedule: Q01DX009 (ip), vehicle: saline with Tween-80
[13] = dose: 50.0 mg/kg/injection, schedule: Q01DX001 (ip), vehicle: saline with Tween-80
[14] = dose: 100.0 mg/kg/injection, schedule: Q01DX001 (ip), vehicle: saline with Tween-80

For N#CN(Cc1ccccc1)Cc1ccccc1.[Cl][Sn]([c]1ccccc1)([c]1ccccc1)[c]1ccccc1, the T/C (dose: 3.12 mg/kg/injection, schedule: Q01DX005 (ip), vehicle: saline with Tween-80) was 98 % of control and the T/C (dose: 6.25 mg/kg/injection, schedule: Q01DX005 (ip), vehicle: saline with Tween-80) was 95 % of control.
In the case of C=CC(=C)C1(O)c2ccccc2C(=O)N1C (centres undefined), the T/C [1] was 106 % of control and the T/C [2] was 109 % of control.
CC(C)C(=O)NCc1ccccc1Sc1ccccc1CNC(=O)C(C)C was tested, and the T/C (dose: 100.0 mg/kg/injection, schedule: Q04DX002 (ip), vehicle: saline with Tween-80) was 90 % of control, the T/C (dose: 200.0 mg/kg/injection, schedule: Q04DX002 (ip), vehicle: saline with Tween-80) was 90 % of control and the T/C (dose: 400.0 mg/kg/injection, schedule: Q04DX002 (ip), vehicle: saline with Tween-80) was 91 % of control.
With CN(C)C1c2cc3ccccc3nc2-c2ccccc2C1(C)C (centres undefined) the T/C (dose: 12.5 mg/kg/injection, schedule: Q01DX005 (ip), vehicle: saline with Tween-80) was 95 % of control, the T/C (dose: 25.0 mg/kg/injection, schedule: Q01DX005 (ip), vehicle: saline with Tween-80) was 95 % of control and the T/C (dose: 50.0 mg/kg/injection, schedule: Q01DX005 (ip), vehicle: saline with Tween-80) was 100 % of control and 101 % of control. The T/C (dose: 200.0 mg/kg/injection, schedule: Q01DX005 (ip), vehicle: saline with Tween-80) was 97 % of control.
For CC(NC(=O)OCc1ccccc1)C(=O)NC(Cc1c[nH]c2ccccc12)C(=O)O (centres undefined), the T/C [3] was 99 % of control, the T/C [4] was 97 % of control and the T/C [5] was 95 % of control.
For c1ccc(OP2(Oc3ccccc3)=NP(Oc3ccccc3)(Oc3ccccc3)=NP(Oc3ccccc3)(Oc3ccccc3)=NP(Oc3ccccc3)(Oc3ccccc3)=N2)cc1, the T/C [3] was 97 % of control and the T/C [4] was 91 % of control.
In the case of O=C1CCCN1CC#CCN1CCCC1, the T/C (dose: 0.79 mg/kg/injection, schedule: Q01DX001 (ip), vehicle: saline) was 97 % of control, the T/C (dose: 0.79 mg/kg/injection, schedule: Q01DX005 (ip), vehicle: saline) was 100 % of control and the T/C (dose: 1.56 mg/kg/injection, schedule: Q01DX001 (ip), vehicle: saline) was 103 % of control. For the same compound, the T/C (dose: 1.56 mg/kg/injection, schedule: Q01DX005 (ip), vehicle: saline) was 97 % of control, the T/C (dose: 3.12 mg/kg/injection, schedule: Q01DX001 (ip), vehicle: saline) was 105 % of control and the T/C (dose: 3.12 mg/kg/injection, schedule: Q01DX005 (ip), vehicle: saline) was 97 % of control.
For COc1cc2c(cc1OCc1ccccc1)C(Cc1cc(Br)sc1Br)=NCC2, the T/C [3] was 88 % of control, the T/C [4] was 90 % of control and the T/C [5] was 92 % of control.
In the case of C1CC[N-]CC1.C1CC[N-]CC1.C1CC[N-]CC1.C1CC[N-]CC1.[Pt+4], the T/C (dose: 2.0 mg/kg/injection, schedule: Q01DX009 (ip), vehicle: saline) was 95 % of control, the T/C (dose: 4.0 mg/kg/injection, schedule: Q01DX009 (ip), vehicle: saline) was 89 % of control and the T/C (dose: 8.0 mg/kg/injection, schedule: Q01DX009 (ip), vehicle: saline) was 93 % of control.
In the case of COc1ccc(C(=O)CCc2cccc(NC(=O)CCCl)c2)cc1, the T/C (dose: 60.0 mg/kg/injection, schedule: Q01DX005 (ip), vehicle: saline with Tween-80) was 105 % of control, the T/C (dose: 120.0 mg/kg/injection, schedule: Q01DX005 (ip), vehicle: saline with Tween-80) was 94 % of control and the T/C (dose: 240.0 mg/kg/injection, schedule: Q01DX005 (ip), vehicle: saline with Tween-80) was 92 % of control.
In the case of c1cc[n+](CCC[n+]2ccccc2)cc1, the T/C [6] was 98 % of control, the T/C [7] was 97 % of control and the T/C [8] was 100 % of control.
In the case of CCN(CC)CCOCCC1(C)Oc2ccc(Cl)cc2O1 (centres undefined), the T/C [6] was 93 % of control and the T/C [7] was 93 % of control.
For COc1ccccc1N1C(=O)CC(Sc2ccccc2N)C1=O (centres undefined), the T/C [9] was 104 % of control, the T/C [10] was 90 % of control and the T/C [11] was 90 % of control.
For C=C(C)C(=O)OCCC[Si](OCCOC)(OCCOC)OCCOC, the T/C [6] was 95 % of control, the T/C [7] was 95 % of control and the T/C [8] was 106 % of control.
For O=C1CCC(=O)N1CN(Cc1ccccc1)Cc1ccccc1, the T/C [1] was 100 % of control, the T/C [2] was 97 % of control and the T/C (dose: 240.0 mg/kg/injection, schedule: Q01DX005 (ip), vehicle: Klucel (hydroxypropylcellulose) (HPC)) was 103 % of control.
For CCN(CC)Cc1cc(C)c(O)c(N=Nc2ccc3c4c(cccc24)-c2ccccc2-3)c1C, the T/C [12] was 90 % of control, the T/C (dose: 100.0 mg/kg/injection, schedule: Q01DX009 (ip), vehicle: saline with Tween-80) was 93 % of control and the T/C (dose: 200.0 mg/kg/injection, schedule: Q01DX009 (ip), vehicle: saline with Tween-80) was 89 % of control.
In the case of CCOC(=O)CCC(NC(=O)c1ccc(CBr)cc1)C(=O)OCC (centres undefined), the T/C (dose: 12.5 mg/kg/injection, schedule: Q01DX009 (ip), vehicle: distilled water + Tween-80) was 102 % of control, the T/C (dose: 25.0 mg/kg/injection, schedule: Q01DX009 (ip), vehicle: distilled water + Tween-80) was 111 % of control and the T/C (dose: 50.0 mg/kg/injection, schedule: Q01DX009 (ip), vehicle: distilled water + Tween-80) was 107 % of control. The T/C (dose: 100.0 mg/kg/injection, schedule: Q01DX009 (ip), vehicle: distilled water + Tween-80) was 100 % of control.
With CC(=O)NC(CCCCN)C(=O)O (centres undefined) the T/C [3] was 103 % of control, the T/C [4] was 101 % of control and the T/C [5] was 102 % of control.
With CC(C)N(CCCO)CCCO the T/C [6] was 97 % of control, the T/C [7] was 93 % of control and the T/C [8] was 102 % of control.
CC(=Nc1ccccc1)Nc1ccccc1.[Cu+2] was tested, and the T/C (dose: 12.5 mg/kg/injection, schedule: Q01DX009 (ip), vehicle: saline with Tween-80) was 109 % of control, the T/C (dose: 25.0 mg/kg/injection, schedule: Q01DX009 (ip), vehicle: saline with Tween-80) was 105 % of control and the T/C [12] was 105 % of control.
For Cc1cnc2cc(Cl)ccc2c1NCCNCCO, the T/C (dose: 50.0 mg/kg/injection, schedule: Q01DX005 (ip), vehicle: saline) was 119 % of control and the T/C (dose: 100.0 mg/kg/injection, schedule: Q01DX005 (ip), vehicle: saline) was 119 % of control.
With CC(=O)OCC(Br)C(Br)COC(C)=O (centres undefined) the T/C [9] was 100 % of control, the T/C [10] was 100 % of control and the T/C [11] was 100 % of control.
In the case of CC(C)(C)OOC(=O)c1ccccc1O, the T/C (dose: 100.0 mg/kg/injection, schedule: Q04DX003 (ip), vehicle: saline sonified) was 100 % of control and the T/C (dose: 200.0 mg/kg/injection, schedule: Q04DX003 (ip), vehicle: saline sonified) was 100 % of control.
For O=C1NC(=O)N(C(F)(F)F)C(F)(F)N1C(F)(F)F, the T/C [3] was 107 % of control and the T/C [4] was 107 % of control.
With CC1(C)CC(=O)N(Cc2ccccc2)N1C(=O)c1ccccc1 the T/C [13] was 100 % of control, the T/C [14] was 95 % of control and the T/C (dose: 200.0 mg/kg/injection, schedule: Q01DX001 (ip), vehicle: saline with Tween-80) was 100 % of control.
In the case of Cc1ccc(OCC(O)CN2CCN(c3ccc(Cl)cc3)CC2)cc1 (centres undefined), the T/C (dose: 100.0 mg/kg/injection, schedule: Q01DX009 (ip), vehicle: saline sonified) was 100 % of control, the T/C (dose: 200.0 mg/kg/injection, schedule: Q01DX009 (ip), vehicle: saline sonified) was 95 % of control and the T/C (dose: 400.0 mg/kg/injection, schedule: Q01DX009 (ip), vehicle: saline sonified) was 90 % of control.
In the case of COc1cc(C=Nc2cccc(C(=O)O)c2)ccc1N(CCCl)CCCl, the T/C (dose: 25.0 mg/kg/injection, schedule: Q01DX009 (ip), vehicle: saline) was 122 % of control, the T/C (dose: 50.0 mg/kg/injection, schedule: Q04DX003 (ip), vehicle: saline with Tween-80) was 150 % of control and the T/C (dose: 66.0 mg/kg/injection, schedule: Q04DX003 (ip), vehicle: saline with Tween-80) was 272 % of control. The T/C [9] was 181 % of control.
With CC1=C2CCC(O)C2(C)CCC(=O)C1 (centres undefined) the T/C (dose: 100.0 mg/kg/injection, schedule: Q04DX003 (ip), vehicle: Klucel (hydroxypropylcellulose) (HPC)) was 105 % of control and the T/C (dose: 200.0 mg/kg/injection, schedule: Q04DX003 (ip), vehicle: Klucel (hydroxypropylcellulose) (HPC)) was 99 % of control.
In the case of COP(=O)(O)OC.[Ti], the T/C (dose: 25.0 mg/kg/injection, schedule: Q01DX001 (ip), vehicle: saline with Tween-80) was 100 % of control, the T/C [13] was 100 % of control and the T/C [14] was 96 % of control.
With COc1ccc(CCN(C=O)CCc2ccc(OC)c(OC)c2)cc1OC the T/C (dose: 25.0 mg/kg/injection, schedule: Q01DX009 (ip), vehicle: other) was 97 % of control, the T/C (dose: 100.0 mg/kg/injection, schedule: Q01DX009 (ip), vehicle: other) was 109 % of control and the T/C (dose: 200.0 mg/kg/injection, schedule: Q01DX009 (ip), vehicle: other) was 101 % of control. The T/C (dose: 400.0 mg/kg/injection, schedule: Q01DX009 (ip), vehicle: other) was 103 % of control.
